EC50 and inhibition data for 16 molecules are collected here from US20230174492A1, “SUBSTITUTED CONDENSED AZINES AS ANTHELMINTIC COMPOUNDS” (Bayer Animal Health GmbH, priority 2020, published 2023).

Common to all, as to type: cell-based
Assay [1] has as its target D. immitis Slo-1 (Dirofilaria immitis, UniProt I0DFK5). Nature of the assay: In Vitro Assay 2: D. immitis Slo-1, action at a recombinant D. immitis cell line (membrane potential, FLIPR).
In assay [2] the test system is Nippostrongylus brasiliensis. Nature of the assay: In Vitro Assay 3: Nippostrongylus brasiliensis (NIPOBR), acetylcholine esterase readout. The settings on record: adult worms, read-out: activity (reduction of AChE compared to negative control); for inhibition at 1 µg/mL: at 1 μg/ml; for inhibition at 10 µg/mL: at 10 μg/ml. How it is done:
In Vitro Assay 3: Nippostrongylus brasiliensis (NIPOBR)
Adult Nippostrongylus brasiliensis are washed with saline buffer containing 100 U/ml penicillin, 0.1 mg/ml streptomycin and 2.5 μg/ml amphotericin B. Test compounds are dissolved in DMSO and worms are incubated in medium in a final concentration of 10 μg/ml (10 ppm) respectively 1 μg/ml (1 ppm). An aliquot of the medium is used to determine the acetylcholine esterase activity in comparison to a negative control. The principle of measuring acetylcholine esterase as readout for anthelmintic activity is described in Rapson et al (1986) and Rapson et al (1987).

Assay [3] has as its system Dirofilaria immitis microfilariae. Nature of the assay: In Vitro Assay 4: Dirofilaria immitis microfilariae (DIROIM L1), motility. The conditions noted are these: 72 h.
The subject of assay [4] is Dirofilaria immitis third-stage larvae. Nature of the assay: In Vitro Assay 5: Dirofilaria immitis (DIROIM L4), motility. The conditions noted are these: 72 h.
In assay [5] the test system is Nippostrongylus brasiliensis. The experiment in a line: In Vitro Assay 3: Nippostrongylus brasiliensis (NIPOBR), acetylcholine esterase readout. The conditions noted are these: read-out: activity (reduction of AChE compared to negative control).

Molecules are shown by their SMILES. Some results are limits rather than exact numbers.

Chain of D. immitis Slo-1 (I0DFK5 1-1119): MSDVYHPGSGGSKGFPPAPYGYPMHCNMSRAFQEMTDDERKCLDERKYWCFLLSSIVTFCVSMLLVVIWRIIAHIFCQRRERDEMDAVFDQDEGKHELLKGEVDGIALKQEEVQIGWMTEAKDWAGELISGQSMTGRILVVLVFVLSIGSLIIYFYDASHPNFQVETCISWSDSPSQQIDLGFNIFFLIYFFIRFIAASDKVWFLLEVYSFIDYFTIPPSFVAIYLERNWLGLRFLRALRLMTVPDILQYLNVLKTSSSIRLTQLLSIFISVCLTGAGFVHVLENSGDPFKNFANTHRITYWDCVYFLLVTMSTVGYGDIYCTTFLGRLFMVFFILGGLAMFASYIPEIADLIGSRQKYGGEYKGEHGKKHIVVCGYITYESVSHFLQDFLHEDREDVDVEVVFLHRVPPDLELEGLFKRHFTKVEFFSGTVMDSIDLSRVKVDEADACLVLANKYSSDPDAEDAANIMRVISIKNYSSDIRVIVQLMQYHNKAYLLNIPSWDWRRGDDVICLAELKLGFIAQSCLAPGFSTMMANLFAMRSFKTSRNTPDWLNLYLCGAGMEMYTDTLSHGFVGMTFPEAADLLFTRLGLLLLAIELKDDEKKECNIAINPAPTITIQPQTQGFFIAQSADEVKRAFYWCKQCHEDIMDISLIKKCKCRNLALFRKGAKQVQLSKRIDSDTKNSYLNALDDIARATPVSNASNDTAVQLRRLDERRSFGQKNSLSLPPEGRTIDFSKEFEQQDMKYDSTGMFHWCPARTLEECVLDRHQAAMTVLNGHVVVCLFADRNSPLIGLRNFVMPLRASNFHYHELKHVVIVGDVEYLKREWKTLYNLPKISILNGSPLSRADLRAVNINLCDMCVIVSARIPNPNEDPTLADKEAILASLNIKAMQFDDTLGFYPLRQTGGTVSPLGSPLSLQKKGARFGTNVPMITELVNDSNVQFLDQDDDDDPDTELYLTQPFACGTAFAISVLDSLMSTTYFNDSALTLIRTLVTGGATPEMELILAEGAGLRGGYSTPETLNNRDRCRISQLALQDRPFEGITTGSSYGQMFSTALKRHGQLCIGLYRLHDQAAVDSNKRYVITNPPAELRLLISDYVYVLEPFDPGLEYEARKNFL

Turning to `O=C(Nc1cnc2c(-c3cc(F)cc(F)c3F)cccc2c1C1CCOCC1)C1CCOc2ccccc21` (racemic) [Example 9, N-(4-(Tetrahydro-2H-pyran-4-yl)-8-(2,3,5-trifluorophenyl)quinolin-3-yl)chroman-4-carboxamide], the 50% effective concentration (EC50) was 100 to 1000 nM in assay [1], less than 0.1 µg/mL in assay [3] and less than 0.1 µg/mL in assay [4]. In addition, the inhibition at 1 µg/mL in assay [2] is more than 80%. Also, the inhibition at 10 µg/mL in assay [2] was more than 80%. For the same molecule, the inhibition at 0.1 µg/mL in assay [5] is more than 80%.
For `CN(C)c1c(NC(=O)[C@@H]2CCc3ccccc32)cnc2c(-c3cc(F)cc(F)c3F)cccc12` [Example 4, (R)-N-(4-(dimethylamino)-8-(2,3,5-trifluorophenyl)quinolin-3-yl)-2,3-dihydro-1H-indene-1-carboxamide], the half-maximal effective concentration (EC50) in assay [1] is 100 to 1000 nM; in assay [3], less than 0.1 µg/mL; in assay [4], less than 0.1 µg/mL.
In the case of `O=C(Nc1cnc2c(-c3cc(F)cc(F)c3F)c(F)ccc2c1C1CCOCC1)C1CCOc2ccccc21` (racemic) [Example 10, N-(7-Fluoro-4-(tetrahydro-2H-pyran-4-yl)-8-(2,3,5-trifluorophenyl)quinolin-3-yl)chroman-4-carboxamide], the EC50 in assay [1] is 10 to 100 nM; in assay [3], less than 0.1 µg/mL; in assay [4], less than 0.1 µg/mL. In addition, the inhibition at 1 µg/mL in assay [2] is more than 80%. In addition, the inhibition at 10 µg/mL in assay [2] is more than 80%. Also, the inhibition at 0.1 µg/mL in assay [5] is more than 80%.
For `CCc1c(NC(=O)C2CCOc3ccccc32)cnc2c(-c3cc(F)cc(F)c3F)c(F)ccc12` (racemic) [Example 13, N-(4-ethyl-7-fluoro-8-(2,3,5-trifluorophenyl)quinolin-3-yl)chromane-4-carboxamide], the results for the EC50 in assay [1], in assay [3] and in assay [4] were 10 to 100 nM, less than 0.1 µg/mL and less than 0.1 µg/mL, respectively. Also, the inhibition at 1 µg/mL in assay [2] was more than 80%. The inhibition at 10 µg/mL in assay [2] was more than 80%. In assay [5], the inhibition at 0.1 µg/mL is more than 80%.
Consider `CN(C)c1c(NC(=O)C2CCc3ccccc32)cnc2c(-c3cc(F)cc(F)c3F)c(F)ccc12` (racemic) [Example 12, N-(4-(dimethylamino)-7-fluoro-8-(2,3,5-trifluorophenyl)quinolin-3-yl)-2,3-dihydro-1H-indene-1-carboxamide], for which the values for the 50% effective concentration (EC50) in assay [1], in assay [3] and in assay [4] were 100 to 1000 nM, less than 0.1 µg/mL and less than 0.1 µg/mL, respectively.
In the case of `CN(C)c1c(NC(=O)C2CCc3ccccc32)cnc2c(-c3cc(F)cc(F)c3F)cccc12` (racemic) [Example 6, N-(4-(Dimethylamino)-8-(2,3,5-trifluorophenyl)quinolin-3-yl)-2,3-dihydro-1H-indene-1-carboxamide], the EC50 is 100 to 1000 nM in assay [1], less than 0.1 µg/mL in assay [3] and less than 0.1 µg/mL in assay [4].
As for `CCc1c(NC(=O)C2CCOc3ccccc32)cnc2c(-c3cc(Cl)cc(Cl)c3)c(F)ccc12` (racemic) [Example 16, N-(8-(3,5-dichlorophenyl)-4-ethyl-7-fluoroquinolin-3-yl)chromane-4-carboxamide], the EC50 in assay [1] is 100 to 1000 nM; in assay [3], less than 0.1 µg/mL; in assay [4], less than 0.1 µg/mL. For the same molecule, the inhibition at 1 µg/mL in assay [2] is more than 80%. Besides, the inhibition at 10 µg/mL in assay [2] is more than 80%. In assay [5], the inhibition at 0.1 µg/mL was more than 80%.
Consider `CN(C)c1c(NC(=O)C2CCOc3ccccc32)cnc2c(-c3cc(F)cc(F)c3F)c(F)ccc12` (racemic) [Example 11, N-(4-(dimethylamino)-7-fluoro-8-(2,3,5-trifluorophenyl)quinolin-3-yl)chroman-4-carboxamide], for which the EC50 was 10 to 100 nM in assay [1], less than 0.1 µg/mL in assay [3] and less than 0.1 µg/mL in assay [4]. For the same molecule, the inhibition at 1 µg/mL in assay [2] is more than 80%. The inhibition at 10 µg/mL in assay [2] is more than 80%. Also, the inhibition at 0.1 µg/mL in assay [5] was more than 80%.
As to `CN(C)c1c(NC(=O)[C@H]2CCOc3ccccc32)cnc2c(-c3cc(F)cc(F)c3F)cccc12` [Example 1, (S)-N-(4-(dimethylamino)-8-(2,3,5-trifluorophenyl)quinolin-3-yl)chromane-4-carboxamide], the EC50 in assay [1] was 100 to 1000 nM; in assay [3], less than 0.1 µg/mL; in assay [4] it was less than 0.1 µg/mL. Also, the inhibition at 1 µg/mL in assay [2] was more than 80%. Also, the inhibition at 10 µg/mL in assay [2] is more than 80%.
With `O=C(Nc1cnc2c(-c3cc(F)cc(F)c3F)cccc2c1N1CCOCC1)C1CCOc2ccccc21` (racemic) [Example 7, N-(4-Morpholino-8-(2,3,5-trifluorophenyl)quinolin-3-yl)chroman-4-carboxamide], the values for the concentration for a half-maximal effect (EC50) in assay [1], in assay [3] and in assay [4] were 10 to 100 nM, less than 0.1 µg/mL and less than 0.1 µg/mL, respectively. In addition, in assay [2], the inhibition at 1 µg/mL is more than 80%. Moreover, the inhibition at 10 µg/mL in assay [2] is more than 80%.
In the case of `CN(C)c1c(NC(=O)C2CCOc3ccccc32)cnc2c(-c3cccc(Cl)c3Cl)c(F)ccc12` (racemic) [Example 17, N-(8-(2,3-dichlorophenyl)-4-(dimethylamino)-7-fluoroquinolin-3-yl)chroman-4-carboxamide], the EC50 in assay [1] is 100 to 1000 nM; in assay [3] it was less than 0.1 µg/mL; in assay [4] it was less than 0.1 µg/mL. In assay [2], the inhibition at 1 µg/mL is more than 80%. Also, in assay [2], the inhibition at 10 µg/mL is more than 80%. Besides, the inhibition at 0.1 µg/mL in assay [5] is more than 80%.
Turning to `O=C(Nc1cnc2c(-c3cc(Cl)cc(Cl)c3)c(F)ccc2c1N1CCOCC1)C1CCOc2ccccc21` (racemic) [Example 15, N-(8-(3,5-dichlorophenyl)-7-fluoro-4-morpholinoquinolin-3-yl)chromane-4-carboxamide], the EC50 in assay [1] is 10 to 100 nM; in assay [3], less than 0.1 µg/mL; in assay [4], less than 0.1 µg/mL. The inhibition at 1 µg/mL in assay [2] is more than 80%. Moreover, the inhibition at 10 µg/mL in assay [2] was more than 80%.
In the case of `CN(C)c1c(NC(=O)C2CCc3ccccc32)cnc2c(-c3cccc(Cl)c3Cl)c(F)ccc12` (racemic) [Example 18, N-(8-(2,3-dichlorophenyl)-4-(dimethylamino)-7-fluoroquinolin-3-yl)-2,3-dihydro-1H-indene-1-carboxamide], the values for the concentration giving a half-maximal response (EC50) in assay [1], in assay [3] and in assay [4] were 100 to 1000 nM, less than 0.1 µg/mL and less than 0.1 µg/mL, respectively. The inhibition at 1 µg/mL in assay [2] is more than 80%. Also, in assay [2], the inhibition at 10 µg/mL is more than 80%.
Regarding `O=C(Nc1cnc2c(-c3cc(Cl)cc(Cl)c3)cccc2c1C1CCOCC1)C1CCc2ccccc21` (racemic) [Example 14, N-(8-(3,5-dichlorophenyl)-4-(tetrahydro-2H-pyran-4-yl)quinolin-3-yl)-2,3-dihydro-1H-indene-1-carboxamide], the EC50 was 100 to 1000 nM in assay [1], less than 0.1 µg/mL in assay [3] and less than 0.1 µg/mL in assay [4]. Moreover, the inhibition at 1 µg/mL in assay [2] was more than 80%. Further, the inhibition at 10 µg/mL in assay [2] was more than 80%. Besides, the inhibition at 0.1 µg/mL in assay [5] is more than 80%.
For `CCc1c(NC(=O)C2CCOc3ccccc32)cnc2c(-c3cc(F)cc(F)c3F)cccc12` (racemic) [Example 8, N-(4-Ethyl-8-(2,3,5-trifluorophenyl)quinolin-3-yl)chroman-4-carboxamide], the EC50 in assay [1] was 100 to 1000 nM. Further, in assay [2], the inhibition at 1 µg/mL was more than 80% and the inhibition at 10 µg/mL was more than 80%. The molecule also gave an EC50 in assay [4] of less than 0.1 µg/mL.
Regarding `CN(C)c1c(NC(=O)C2CCOc3ccccc32)cnc2c(-c3cc(F)cc(F)c3F)cccc12` (racemic) [Example 5, N-(4-(Dimethylamino)-8-(2,3,5-trifluorophenyl)quinolin-3-yl)chroman-4-carboxamide], the results for the EC50 in assay [1], in assay [3] and in assay [4] were 100 to 1000 nM, less than 0.1 µg/mL and less than 0.1 µg/mL, respectively. Further, the inhibition at 1 µg/mL in assay [2] is more than 80%. Besides, the inhibition at 10 µg/mL in assay [2] is more than 80%. In addition, the inhibition at 0.1 µg/mL in assay [5] was more than 80%.
